Measurements: patent US10632084B2, “Aquaporin 4 function promotor and pharmaceutical composition for neurological disorders” (NIIGATA UNIVERSITY, priority 2016, dated 2020)

Key:
AQP 4 [1] = target: T1, AQP 4 (Mus musculus, UniProt P55088); test: AQP 4 function promotion verification test using Alzheimer's disease model mice (H2 17O dynamics in brain by MRI); format: in vivo; conditions: 5×FAD Alzheimer's disease model mice, 50 mg/kg orally for 3 months, MRI (FIG. 3)
T1 construct: from tissue; host or cells: brain of living B6SJL mice
T1 sequence (P55088 whole entry): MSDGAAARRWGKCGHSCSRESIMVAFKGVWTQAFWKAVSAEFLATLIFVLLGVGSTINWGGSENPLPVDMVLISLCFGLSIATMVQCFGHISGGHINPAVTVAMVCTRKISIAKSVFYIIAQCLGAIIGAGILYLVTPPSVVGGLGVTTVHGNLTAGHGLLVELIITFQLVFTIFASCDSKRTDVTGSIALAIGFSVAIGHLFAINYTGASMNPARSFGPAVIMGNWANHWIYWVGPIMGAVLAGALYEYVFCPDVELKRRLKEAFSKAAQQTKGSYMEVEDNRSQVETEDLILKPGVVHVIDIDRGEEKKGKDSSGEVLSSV
Method: (§1) 5×FAD Alzheimer's disease model mice were bred until 4 months old. Next, the compound 1A (50 mg/kg) or the compound 2A (200 mg/kg) prepared in Production Example 1 were orally administered to the mice for 3 months. Further, a non-administration group was also prepared as the control.
With respect to the group of mice to which the compound 1A was administered and the non-administration group, images showing the dynamics of H2^17O in the brain of each mouse (cortex and CSF) at 8 second intervals were recorded until 70 seconds after the administration using MRI according to the same method as in Test Example 1. In FIG. 3, “Vehicle” indicates a non-administration group and “Compound 1A” indicates a compound 1A administration group. Further, relative values (CSF/Cortex) with respect to the cortex are also shown.

senile plaques (Aβ) = test: Immunostaining of brain slices and quantification of senile plaques in Alzheimer's disease model mice; format: in vivo, mouse; conditions: 5×FAD mice; for increase in senile plaques formed of Aβ 42: oral administration for 3 months (compound 1A 50 mg/kg, compound 2A 200 mg/kg), cerebral cortex (FIGS. 4A, 4B)
Method: as §1
Subsequently, the brain was extracted from each mouse, paraffin-embedded slices (respectively with a thickness of 4 μm) were prepared using brain tissues, and immunohistochemical staining was performed according to the following method.
First, the slices were subjected to a formic acid treatment, and overnight incubation was performed at 4° C. using Mouse monoclonal Anti-Human Amyloid J3 (Total Aj3) (10027, IBL, Japan), [2] Rabbit polyclonal Anti-Human Amyloid J31-40 (AJ340) (18580, IBL, Japan), or [3] Rabbit polyclonal Anti-Human Amyloid J31-42 (AJ342) (18582, IBL, Japan) as primary antibodies. Further, the dilution ratios of antibodies were respectively [1]×50, [2]×200, and [3]×200. After the secondary antibodies were applied, the antibodies were visualized according to a polymer method using Histofine DAB substrate kit (NICHIREI CORPORATION, JAPAN).
Next, the tissue images of the stained samples were imaged using a bright field optical microscope (Olympus Corporation, BX53, DP73), and the images were stored according to the TIFF format (2400×1800 pixels, 3.5×2.6 mm, 2.13 μm^2/pixel). Each image was analyzed in the following manner using a particle analysis function of the image analysis processing software (Aquacosmos, Hamamatsu Photonics K.K., Japan). ROI was set as the cerebral cortex, particles were extracted according to a binarization method, and the area (the number of pixels) of each extracted particle was automatically calculated and output. In output particle data, particles with an area of 10 pixels or less were removed as noise and quantified.

[2] = target: T2, human AQP 4 (hAQP 4)-M23 isoform (Homo sapiens, UniProt P55087); test: In vitro assay of oocyte volume under hypotonic condition, Xenopus laevis oocytes expressing AQP 4; format: cell-based; conditions: 20 μM compound, oocytes injected with hAQP 4-M23 mRNA, hypotonic reagent, up to 250 seconds, vs Blank (FIG. 1)
T2 construct: expressed in transfected cells; host or cells: Xenopus laevis oocytes, microinjected with hAQP4-M23 mRNA (pSP35T vector)
T2 sequence (P55087 23-323): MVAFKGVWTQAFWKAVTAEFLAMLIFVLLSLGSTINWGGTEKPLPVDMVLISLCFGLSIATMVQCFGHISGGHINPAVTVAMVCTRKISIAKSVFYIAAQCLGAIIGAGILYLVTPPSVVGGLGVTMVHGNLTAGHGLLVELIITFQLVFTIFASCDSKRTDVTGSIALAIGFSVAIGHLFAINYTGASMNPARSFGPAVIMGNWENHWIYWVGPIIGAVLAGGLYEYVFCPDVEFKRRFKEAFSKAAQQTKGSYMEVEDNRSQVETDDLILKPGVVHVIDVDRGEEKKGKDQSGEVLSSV
Method: A Modified Barth's Medium (MBS) was provided to contain NaCl (88 mM), KCl (1 mM), HEPES (10 mM), MgSO4 (0.82 mM), NaHCO3 (2.4 mM), CaCl2 (0.91 mM), Ca(NO3)2 (0.33 mM), and gentamicin (100 mg/L), prepared to have a pH of 7.5, and used within one week after the preparation.
Isolation, preparation, and transfection of the oocytes of a Xenopus laevis were performed using a method described in the reference (Sakimura, et al., FEBS Lett., 272, 73 to 80, 1990.). Specifically, the oocytes were extracted from a female adult of a Xenopus laevis (weight of 150 g) and transferred to an MBS. Next, the oocytes were partially transferred to an isolation buffer solution, and the theca folliculi was manually removed so that the oocytes were exposed. […]
Next, the transferred oocytes were imaged using an SZX 16 microscope (manufactured by Olympus Corporation) connected to a DP 26 digital camera (manufactured by Olympus Corporation). […] A Hypotonic reagent (1000 μL) was added, and an assay initial image (t=3 seconds) and images at 15 second intervals of were recorded up to 250 seconds after the administration. […]
Subsequently, the images were transferred to a personal computer, and the region of each oocyte was evaluated using NIH Image-J. The value of the cross-sectional area of each oocyte in a plurality of equally determined measurement times was converted into a volume assumed to be spherical. […]

AQP 4 [3] = target: T1, AQP 4; test: AQP 4 function promotion verification test using mice (H2 17O dynamics in brain by MRI); format: in vivo; conditions: normal male B6SJL-Tg mice, 8 weeks old, intraperitoneal administration, MRI until 70 seconds (FIG. 2B)
Method: Normal male B6SJL-Tg mice obtained from Jackson Laboratory were bred until 8 weeks old. Next, indomethacin as a comparative example, the compound 2A prepared in Production Example 1, and physiological saline as the control were intraperitoneally administered to respectively five mice.
Thereafter, 0.2 mL of typical physiological saline containing 20% H2^17O was administered to the right femoral vein of each mouse through the PE10 tube inserted thereinto using an automatic syringe at 0.04 mL/sec. Next, images showing the dynamics of H2^17O in the brain of each mouse ((cortex) and the cerebrospinal fluid (CSF)) at 8 second intervals were recorded until 70 seconds after the administration using magnetic resonance imaging (MRI). The results are shown in FIG. 2A (administration of indomethacin) and FIG. 2B (administration of compound 2A). FIGS. 2A and 2B show relative values (CSF/Cortex) of CSF with respect to the cortex. In FIGS. 2A and 2B, “Vehicle” indicates a non-administration control group, “Indomethacin” indicates an indomethacin administration group, and “Compound 2A” indicates a compound 2A administration group.

SMILES	AQP 4 function (H2 17O dynamics, CSF/Cortex) (AQP 4 [1])	increase in senile plaques (total Aβ, Aβ 40, Aβ 42 staining) (senile plaques (Aβ); 50 mg/kg orally for 3 months, cerebral cortex (FIGS. 5A-7B))	increase in senile plaques formed of Aβ 42 (senile plaques (Aβ))	volume of the oocyte [2]	numerical values of CSF/Cortex (H2 17O dynamics; water discharge, flow of cerebrospinal fluid) (AQP 4 [3])
N=C(N)NCCS(=O)(=O)O [compound 1A, 2-guanidino-1-ethanesulfonic acid]	markedly promoted	can be suppressed	can be suppressed		
O=S(=O)(Nc1ncccc1OCc1ccccc1)c1ccccc1 [compound 2A, 2-(phenylsulfonamido)-3-benzyloxypyridine]			can be suppressed	significantly increased	decreased
